Test results as given in patent US8304422B2, “Compositions and methods for inhibition of the JAK pathway” (Rigel Pharmaceuticals, Inc., priority 2007, dated 2012).

Each compound was assayed on BaF3 V617F cells; UKE-1 (assay: Proliferation Assay (Cell Titer-Glo; Example 7)). Settings: proliferation 72 hours, inhibit JAK2 activity, cell line (BaF3 V617F or UKE-1) not stated.
Assay type: cell-based
Experimental: BaF3 V617F cells are maintained and plated in RPMI with 10% FBS. Plating density for these cells is 1×10^5 cells/mL.
UKE-1 are maintained and plated in Iscove's DMEM containing 10% FBS, 10% equine serum, 1% penicillin/streptomycin and 1 uM hydrocortisone. Plating density for these cells is 0.4×10^6 cells/mL
The cells were resuspended in a corresponding medium at a required cell density (see above). 100μ of cell suspension was added to each well of a flat bottom 96 well white plate. The compound was serially diluted in DMSO from 5 mM in 3-fold dilutions, and then diluted 1:250 in the RPMI 1640 medium containing 5% FBS and pen/strep. 100 μL of resulting 2× compound solution was added per well in duplicate and the cells were allowed to proliferate for 72 hours at 37° C.
Proliferation was measured using Cell Titer-Glo. The substrate was thawed and allowed to come to room temperature. After removal of top 100 μL of medium from each well, 100 μL of the premixed Cell Titer-Glo reagent was added to each well. The plates were mixed on an orbital shaker for three minutes to induce lysis and incubated at ambient temperature for an additional five minutes to allow the signal to equilibrate. The Luminescence was read on the Wallac Plate Reader.
The results of the ability of the compounds of the invention to inhibit JAK2 activity, when tested in the above assay, are shown in the following Table XI wherein the level of activity (i.e., the IC50) for each compound is indicated in Table XI. The compound numbers in Table XI refers to the compounds disclosed herein as being prepared by the methods disclosed herein: […]

| Compound | IC50 |
| --- | --- |
| Cc1cc(Nc2ncc(Cl)c(Nc3ccc(CNS(=O)(=O)NC4CC4)cc3)n2)cc(C)c1OC(C)C [II-156, 5-Chloro-N4-[4-((N-cyclopropylamino)sulfonylamino)methylphenyl]-N2-(3,5-dimethyl-4-(1-methyl)ethoxyphenyl)-2,4-pyrimidinediamine] | 58.1 nM |
| Cc1cnc(Nc2cc(C)c(OC(C)C)c(C)c2)nc1Nc1ccc(CNS(=O)(=O)NC2CC2)cc1 [II-164, N4-[4-((N-Cyclopropylamino)sulfonylamino)methylphenyl]-N2-[3,5-dimethyl-4-(1-methyl)ethoxyphenyl]-5-methyl-2,4-pyrimidinediamine] | 94.8 nM |
| CCc1cnc(Nc2cc(C)c(OC)c(C)c2)nc1Nc1ccc(CNS(=O)(=O)C2CC2)cc1 [II-81, N4-[4-(N-Cyclopropylsulfonylamino)methylphenyl]-N2-(3,5-dimethyl-4-methoxyphenyl)-5-ethyl-2,4-pyrimidinediamine] | 1100 nM |
| 5-Chloro-N4-[3-(N-tert-butylsulfonyl)phenyl]-N2-[3,5-dimethyl-4-(2-(1-morpholino)ethoxyphenyl]-2,4-pyrimidinediamine [I-21] | 243 nM |
| CN1CCN(c2ccc(Nc3ncc(Cl)c(Nc4ccc(CNS(=O)(=O)N(C)C)cc4)n3)cc2)CC1 [II-96, 5-Chloro-N4-[(4-(dimethylamino)sulfonylamino)methylphenyl]-N2-[4-(4-methyl-1-piperazinyl)phenyl]-2,4-pyrimidinediamine] | 91 nM |
| COc1cc(Nc2ncc(Cl)c(Nc3ccc(CNS(=O)(=O)N(C)C)cc3)n2)cc(Cl)c1OC [II-92, 5-Chloro-N2-(3-chloro-4,5-dimethoxyphenyl)-N4-[(4-(dimethylamino)sulfonylamino)methylphenyl]-2,4-pyrimidinediamine] | 558 nM |
| (1R)—N2-(3,5-Dichloro-4-methoxyphenyl))-5-methyl-N4-[1-(methylsulfonyl)aminoindan-6-yl]-2,4-pyrimidinediamine [V-13] | 19300 nM |
| CCc1cnc(Nc2cc(Cl)c(OC)c(Cl)c2)nc1Nc1ccc(CNS(=O)(=O)C2CC2)cc1 [II-84, N4-[4-(N-Cyclopropylsulfonylamino)methylphenyl]-N2-(3,5-dichloro-4-methoxyphenyl)-5-ethyl-2,4-pyrimidinediamine] | 38300 nM |
| CCS(=O)(=O)N1CCc2c(cccc2Nc2nc(Nc3cc(C)c(OC)c(C)c3)ncc2Cl)C1 [VI-4, 5-Chloro-N2-(3,5-dimethyl-4-methoxyphenyl)N4-[1,2,3,4-tetrahydro-2-(ethylsulfonyl)-5-isoquinolinyl]-2,4-pyrimidinediamine] | 1210 nM |
| CCOc1cc(C)c(Nc2ncc(C)c(Nc3ccc(CCNS(=O)(=O)C4CC4)cc3)n2)c(C)c1 [II-63] | 530 nM |
| Cc1cc(Nc2ncc(Cl)c(Nc3cccc(S(=O)(=O)NC(C)(C)C)c3)n2)ccc1N1C[C@@H]2C[C@H]1CN2C [I-22, 5-Chloro-N4-[(3-(1,1-dimethylethylamino)sulfonyl)phenyl]-N2-[3-methyl-4-[(1S,4S)-5-methyl-2,5-diazabicyclo[2.2.1]hept-2-yl]phenyl]-2,4-pyrimidinediamine] | 549 nM |
| CCc1cnc(Nc2ccc(N3CCN(C)CC3)cc2)nc1Nc1ccc(CNS(=O)(=O)C2CC2)cc1 [II-86, N4-[4-(N-Cyclopropylsulfonylamino)methylphenyl]-5-ethyl-N2-[4-(4-methyl-1-piperazinyl)phenyl]-2,4-pyrimidinediamine] | 724 nM |
| CN1CCN(c2ccc(Nc3ncc(Cl)c(Nc4ccc(CCNS(=O)(=O)C5CC5)cc4)n3)cn2)CC1 [II-53, 5-Chloro-N4[4-(N-cyclopropylsulfonylamino)ethylphenyl]-N2-[4-(4-methylpiperazino)pyrido]-2,4-pyrimidinediamine] | 1980 nM |
| CN1CCN(c2ccc(Nc3ncc(Cl)c(Nc4ccc(CCNS(=O)(=O)C5CC5)cc4)n3)cc2)CC1 [II-51, 5-Chloro-N4[4-(N-cyclopropylsulfonylamino)ethylphenyl]-N2-[4-(4-methylpiperazino)phenyl]-2,4-pyrimidinediamine] | 1070 nM |
| CCNS(=O)(=O)NCc1cccc(Nc2nc(Nc3ccc(N4CCN(C)CC4)cc3)ncc2Cl)c1 [II-131, 5-Chloro-N4-[(3-(ethylamino)sulfonylamino)methylphenyl]-N2-[4-(4-methyl-1-piperazinyl)phenyl]-2,4-pyrimidinediamine] | 151 nM |
| Cc1cnc(Nc2cc(C)c(OCCN3CCOCC3)c(C)c2)nc1Nc1cccc(S(=O)(=O)NC(C)(C)C)c1 [I-20] | 189 nM |

| Compound | IC50 |
| --- | --- |
| 5-Chloro-N4-[4-(N-cyclopropylsulfonylamino)methylphenyl]-N2-[5-methyl-4-(N-methylpiperizin-4-yl)pyridin-3-yl]-2,4-pyrimidinediamine [II-225] | 120 nM |
| COc1c(C)cc(Nc2ncc(C)c(Nc3ccc4c(c3)C(NS(=O)(=O)C3CC3)CC4)n2)cc1C (racemic) [V-7, (+/−)-N4-[1-(Cyclopropylsulfonylamino)indan-6-yl]-N2-(3,5-dimethyl-4-methoxyphenyl)-5-methyl-2,4-pyrimidinediamine] | 1600 nM |
| COc1c(C)cc(Nc2ncc(Cl)c(Nc3ccc(CNS(N)(=O)=O)cc3)n2)cc1C [II-146, N4-[4-(Aminosulfonylamino)methylphenyl]-5-chloro-N2-(3,5-dimethyl-4-methoxyphenyl)-2,4-pyrimidinediamine] | 225 nM |
| O=S(=O)(NCc1ccc(Nc2nc(Nc3cc(C4CC4)n[nH]3)ncc2Cl)cc1)C1CC1 [VIII-12, 5-Chloro-N4-[4-(N-cyclopropylsulfonylamino)methylphenyl]-N2-[5-cyclopropylpyrazol-3-yl)-2,4-pyrimidinediamine] | 879 nM |
| 5-Bromo-N4-[3-(N-tert-butylsulfonyl)phenyl]-N2-[4-(4-methylpiperazine)-phenyl]-2,4-pyrimidinediamine [I-18] | 832 nM |
| Cc1cnc(Nc2ccc(N3CCN(C4CC5CCC4C5)CC3)cc2)nc1Nc1ccc(CNS(=O)(=O)C2CC2)cc1 (centres unmarked) [II-60, N-(4-(2-(4-(4-(bicyclo[2.2.1]heptan-2-yl)piperazin-1-yl)phenylamino)-5-methylpyrimidin-4-ylamino)benzyl)cyclopropanesulfonamide] | 391 nM |
| 5-Chloro-N2-[3,4-dimethyl-4-(2-(4-morpholinyl)ethoxy)phenyl]-N4-[4-((N-cyclopropylamino)sulfonylamino)methylphenyl]-2,4-pyrimidinediamine [II-170] | 40.2 nM |
| CCNS(=O)(=O)NCc1ccc(Nc2nc(Nc3cc(OC)c(OC)c(OC)c3)ncc2Cl)cc1 [II-112, 5-Chloro-N4-[(4-(ethylamino)sulfonylamino)methylphenyl]-N2-(3,4,5-trimethoxyphenyl)-2,4-pyrimidinediamine] | 431 nM |
| Cc1cc(CNS(=O)(=O)NC2CC2)ccc1Nc1nc(Nc2ccc(N3CCN(C)CC3)cc2)ncc1Cl [II-180, 5-Chloro-N4-[2-methyl-4-((N-cyclopropylamino)sulfonylamino)methylphenyl]-N2-[4-(4-methyl-1-piperazinyl)phenyl]-2,4-pyrimidinediamine] | 633 nM |
| CCNS(=O)(=O)NCc1ccc(Nc2nc(Nc3cc(C)c(OC)c(C)c3)ncc2Cl)c(C)c1 [II-142, 5-Chloro-N2-(3,5-dimethyl-4-methoxyphenyl)-N4-[2-methyl-4-(ethylaminosulfonylamino)methylphenyl]-2,4-pyrimidinediamine] | 485 nM |
| N2-[3,4-Dimethyl-4-(2-(4-morpholinyl)ethoxy)phenyl]-N4-[4-((N-cyclopropylamino)sulfonylamino)methylphenyl]-5-methyl-2,4-pyrimidinediamine [II-174] | 127 nM |
| CCOc1c(C)cc(Nc2ncc(C)c(Nc3ccc(CNS(=O)(=O)NC4CC4)cc3)n2)cc1C [II-163, N4-[4-((N-Cyclopropylamino)sulfonylamino)methylphenyl]-N2-(3,5-dimethyl-4-ethoxyphenyl)-5-methyl-2,4-pyrimidinediamine] | 63.6 nM |
| Cc1cnc(Nc2ccc(-c3cccnc3)cc2)nc1Nc1ccc2c(c1)[C@H](NS(C)(=O)=O)CC2 [V-12, (1R)-5-Methyl-N4-[1-(methylsulfonyl)aminoindan-6-yl]-N2-[4-(3-pyridinyl)phenyl]-2,4-pyrimidinediamine] | 668 nM |
| COc1cc(Nc2ncc(Cl)c(Nc3ccc(CNS(=O)(=O)C4CC4)cc3)n2)cc(C)c1OC [II-199, 5-Chloro-N4-[4-(N-cyclopropylsulfonylamino)methylphenyl]-N2-[3,4-dimethoxy-5-methylphenyl]-2,4-pyrimidinediamine] | 57.2 nM |
| COc1c(C)cc(Nc2ncc(Cl)c(Nc3ccc(CNS(=O)(=O)NC4CC4)cc3C)n2)cc1C [II-175, 5-Chloro-N2-(3,5-dimethyl-4-methoxyphenyl)-N4-[2-methyl-4-((N-cyclopropylamino)sulfonylamino)methylphenyl]-2,4-pyrimidinediamine] | 354 nM |
| CCNS(=O)(=O)NCc1ccc(Nc2nc(Nc3ccc(N4CCN(C)CC4)cc3)ncc2C)cc1 [II-122, N4-[(4-(Ethylamino)sulfonylamino)methylphenyl]-5-methyl-N2-[4-(4-methyl-1-piperazinyl)phenyl]-2,4-pyrimidinediamine] | 276 nM |
